Read-outs that look alike come from different tables or passages of the source.
Columns and labels:
Assay type in all cases: cell-based
specific MG-derived AGE = assay: Detection of the specific MG-derived AGE by Western blot with mAb6B, densitometry of the ECL signal
Method: L929 cells were seeded 48 hours prior to the experiment. TNF incubations (1000 U/ml) were done in the presence of CHX to synchronize cell death. After TNF incubations (1.5 hours or 2.5 hours), the cells were rinsed three times with ice-cold PBS buffer and cell lysates were prepared in a CHAPS-containing cytosol extraction buffer (Guy et al., 1992). […] To use the antibody sparingly, SDS-PAGE gels were only run over a distance of 5 cm.

glyoxalase I = target: T1, glyoxalase I (Mus musculus, UniProt Q9CPU0); assay: TNF-induced phosphorylation of glyoxalase I (32P labeling, 2-D gels, Western blot with anti-human glyoxalase I antibody)
T1 construct: TNF-induced phosphorylation of endogeneous glyoxalase I in L929 cells; endogenous in cells; host or cells: L929 cells
T1 sequence (Q9CPU0 2-184 limits assumed): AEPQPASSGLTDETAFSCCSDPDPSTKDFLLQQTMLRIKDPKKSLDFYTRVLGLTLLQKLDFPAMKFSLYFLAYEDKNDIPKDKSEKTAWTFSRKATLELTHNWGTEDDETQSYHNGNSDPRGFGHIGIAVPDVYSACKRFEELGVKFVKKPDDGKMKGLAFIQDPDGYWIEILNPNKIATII
Method: L929 cells were plated 48 hours prior to the experiment. ^32P labeling was carried out as described in (Guy et al., 1992). TNF treatments (1000 IU/ml, 1.5 hours) were done in the presence of cycloheximide (CHX), to synchronize cell death. To simplify the 2-D phosphoprotein pattern and subsequent computer-assisted analysis, we prepared two subcellular protein fractions. The cytosolic protein fraction, containing soluble cytoplasmic molecules and molecules derived from single-membrane organelles, was obtained as the supernatant from digitonin (0.03%)-permeabilized cells. After rinsing once with excess PBS buffer, the remaining cell fraction was lysed in a CHAPS (2%)-containing buffer as described in (Guy et al., 1992). This lysate was then centrifuged (20,000 g) and the supernatant was used as the organelle fraction; it is enriched for mitochondrial and cytoskeleton-derived proteins.
Isoelectric focusing. […] Protein samples were precipitated with ethanol and redissolved in lysis buffer.
SDS-PAGE. The second dimension (SDS-PAGE) was run on large vertical gels (12.5% acrylamide, Biorad).
Proteins were separated by SDS-PAGE (12.5%) and transferred to a PVDF membrane (Hybond-P, Amersham Pharmacia Biotech). […]

L929 cells = system: L929 cells
Method: Murine TNF (mTNF) was obtained from Roche Diagnostics and was used at 1000 IU/ml unless indicated otherwise. Propidium iodide (PI) and cycloheximide (CHX) (all from Sigma) were used at concentrations of 30 μM and 50 μg/ml, respectively.
Cell death in L929 was induced by addition of TNF to the cell suspension. Cell death was measured by quantifying PI-positive cells by FACS (FACSCalibur, Becton Dickinson, San Jose, Calif.). The PI dye was excited with an argon-ion laser at 488 nm; PI fluorescence was measured above 590 nm using a long-pass filter. Routinely, 3,000 cells were analyzed. Cell death is expressed as the percentage of PI-positive cells in the total cell population.

[1] = L929 cells pretreated (BBGD 20 μM; H89 5 μM), after 1.5 hours of TNF treatment
[2] = L929 cells pretreated (BBGD 20 μM; H89 5 μM), after 2.5 hours of TNF treatment

For `NC(CCC(=O)NC(CSCc1ccc(Br)cc1)C(=O)NCC(=O)OC1CCCC1)C(=O)OC1CCCC1` (stereo not shown) [BBGD, s-p-bromobenzylglutathione cyclopentyl diester], the “reduction of formation of the specific MG-derived AGE” value (shortened to “reduction”) (specific MG-derived AGE; [1]) was 50%, the “reduction” value (specific MG-derived AGE; [2]) was 10% and the “effect on TNF-induced phosphorylation of GLO1” value (glyoxalase I; cells preincubated with the inhibitor for 1 hour 10 minutes, 2-D gels pH 3–10) was “inhibits the TNF-induced phosphorylation of GLO1”. For the same molecule, the “increase in TNF-induced cell death (synergistic effect)” value (L929 cells; inhibitor and TNF added at the same time, 20 μM) was 50% and the “inhibition of TNF-induced cell death” value (L929 cells; preincubation 1 hour 10 minutes with inhibitor, 20 μM) was 60%.
For `O=CC[C@@H](O)[C@H](O)[C@H](O)CO` [2-deoxyglucose], the “inhibition of formation of the specific MG-derived AGE” value (specific MG-derived AGE; TNF 1000 U/ml + CHX, 2.5 hours, 2-deoxyglucose 2:1 ratio to glucose, given with TNF) was 65% and the “inhibition of TNF-induced cell death” value (L929 cells; 2-deoxyglucose 2:1 ratio to glucose) was 65%.
In the case of `COc1ccc(O)c(C(C)(C)C)c1` [BHA, butylated hydroxyanisole], the “reduction” value (specific MG-derived AGE; TNF 1000 U/ml + CHX, 2.5 hours, BHA 100 μM given 0.5 hour after TNF) is reported as 65%.
With `N=C(N)NN` [aminoguanidine] the “inhibition of TNF-induced cell death” value (L929 cells; 16 hours TNF 20 U/ml, 400 μM) was 15% and the “maximum inhibition of TNF-induced cell death” value (L929 cells; 16 hours TNF 20 U/ml, 600 or 800 μM) was 25%.
With `O=S(=O)(NCCNC/C=C/c1ccc(Br)cc1)c1cccc2cnccc12` [H89] the “reduction” value (specific MG-derived AGE; [1]) was 70%, the “reduction” value (specific MG-derived AGE; [2]) was 20% and the “effect on induction of the more acidic (phosphorylated) isoform of glyoxalase I by TNF” value (glyoxalase I; L929 cells, pretreatment, 5 μM) was “completely abolished”. The “effect on TNF-induced cell death” value (L929 cells; pretreatment 2 hours, 1 μM) was “inhibitory effect” and the “inhibition of TNF-induced cell death” value (L929 cells; pretreatment 2 hours, 5 μM) was over 50%.
For `CC(=O)C=O` [MG, methylglyoxal], the “effect of exogeneously added MG on TNF-induced cell death” value (L929 cells; 5.5 hours incubation with TNF and methylglyoxal, concentration-dependent) was “strongly synergistic”.

From US7198931B2, “Phosphorylated glyoxalase I and its use” (Vlaams Interuniversitair Instituut voor Biotechnologie VZW, priority 2001, dated 2007)
